These results are taken from patent US20200030288A1, “STATIN FOR PREVENTION/REDUCTION OF ISCHEMIA-RELATED DAMAGE” (Fundacio Institut De Recerca De L'Hospial De La Santa Creu …, priority 2017, published 2020).

Experiment [1] concerns swine model of myocardial ischemia. The settings on record: 0.3 mg/kg i.v. at 15 min of ischemia. An excerpt: Cardiac rhythm, arterial oxymetry, and arterial pressure were continuously monitored during the procedure. Just before starting the procedure a perfusion of amiodarone and lidocaine was initiated as prophylaxis for malignant left ventricular arrhythmias. All animals of the study were subjected to the same antiarrhythmic pharmacological approach allowing a direct comparison between the groups. By percutaneous approach and fluoroscopy guidance ischemia was induced by complete coronary balloon occlusion of the mid-left anterior descending coronary artery. Contrast angiographies were performed to ensure total coronary occlusion.
Control animals were given intravenous placebo (saline) at 15 min of ischemia. Blood samples (serum) for further assessment of biomarkers of cardiac damage were taken at baseline (i.e. before MI induction or at time=0 min), and at 30 min, 60 min and 90 min after MI induction (ischemia).
Upon taking the 90 min blood sample, the pigs were sacrificed without reperfusion to obtain myocardial tissue for molecular studies and histology.
The concentration of IMA (Ischemic Modified Albumin), CFABP (Cardiac Fatty Acid Binding Protein) and Myoglobin was determined by the respective pig ELISA kits in the blood samples taken 30 min, 60 min and 90 min after MI induction and compared to their baseline values (prior to ischemia induction). These proteins were chosen based on the rationale that they are early markers for cardiac damage assessment due to ischemia.

In the next experiment the test system is RhoA. Kind of experiment: RhoA total and cytosolic/membrane fractions in ischemic myocardium by Western blot. The class given is in vivo, pigs. How it is done: After the ischemic period, the animals' hearts were arrested with potassium chloride and rapidly excised. […] In addition, the separation of the membrane and cytosolic fractions was performed by a modification of the lysis buffer protocol. Briefly, tissue powder was homogenized (1 mol/L NaCl, 20 mmol/L Tris pH 7.4, 1 mmol/L DTT and protease inhibitors) and centrifuged. The supernatant was collected (referred to as the cytosolic fraction) and pellets were resuspended, and the membrane proteins were extracted by incubation in 500 mmol/L Tris-HCl pH 7.4, 20% sodium dodecyl sulfate, 100 mmol/L sodium orthovanadate, and protease inhibitors. The extract was centrifuged and the supernatant was collected as the membrane fraction.
Protein concentration (in total myocardial tissue, in the cytoplasm fraction and in the membrane fraction) was quantified by the Pierce method. RhoA (Santa Cruz) was determined in total and cytosolic and membrane fractions of the ischemic cardiac tissue of all animals by Western Blot analysis. The intensity of the Western blot bands was detected with Chemi-Doc (Bio-Rad) and they were quantified with the Quantity one Software (Bio-Rad). Intensities are expressed in arbitrary units (AU).
In general terms: A western blot detects proteins with antibodies after separation by electrophoresis.

For experiment [2], the system named is mouse model for myocardial ischemia. The experiment in a line: Mouse model of myocardial ischemia by coronary ligation: infarct size and 8-OH-dG oxidative damage. The class given is in vivo, Male CH3 mice. The settings on record: single i.p. dose 15 min after coronary ligation; 45 min ischemia; vs vehicle-control. How it is done:
Complete LAD coronary artery ligation was performed as follows. Male CH3 mice (8-10 weeks old, weighing 25-30 g) were intubated and anesthesized with a mixture of O2/isoflurane and mechanically ventilated (rate 90 breaths/min, tidal volume 0.1 mL). Rectal temperature was continuously monitored throughout the surgery and maintained within 37-38° C. using a heat pad and heat lamp. An anterior thoracotomy was performed; the heart was exposed and the LAD coronary artery was occluded with an intramural stitch (7-0 silk suture; consistent ligation of the left coronary artery as it emerges from under the left atrium) for 45 minutes. Success of complete coronary ligation was verified by electrocardiographic visualization of the ST-elevation-MI pattern that was monitored by high frequency ultrasounds with the Vevo2100 from Visualsonics and by the visualization of a pale, hypokinetic ventricle distal to the site of occlusion.
Ischemia was continued for another 30 min after administration of the single dose (i.e. altogether 45 min of ischemia), then mice were sacrificed and the heart was carefully excised for infarct size analysis.
Infarct size was determined by morphometric analysis. For this purpose, all mouse hearts were immersed in fixative solution (4% paraformaldehyde), embedded in OCT compound and cross-sectioned from apex to base (10 μm thick sections 200 μm distanced). Sections were stained with haematoxylin and eosin and morphometric infarct size analysis was determined using image analysis software (ImageJ, NIH). Infarct size was calculated by the sum of myocardial infarct areas between sections and expressed as a percentage of total LV wall. Three measurements per section were determined.
In addition, myocardial oxidative damage was also assessed. For this purpose, ischemic myocardial tissue was cut into 5-μm-thick slices for 8-OH-dG (Abcam ab48508) staining, a measurement indicative of oxidative stress-induced DNA-damage. Staining was calculated by a single blinded observer from an average of 5-fields/animal as % of stained area. Images were captured by Nikon Eclipse 80i microscope and digitized by Retiga 1300i Fast camera.

A further experiment has as its system MCP-1/CCL2. The experiment in a line: MCP-1/CCL2 mRNA and protein expression in pig myocardium. The class given is in vivo, pigs. How it is done:
The myocardium of pigs included in Example 1 and Example 2 was obtained, pulverized and processed with Tripure or lyses buffer for mRNA and protein isolation as detailed in Example 5 and Example 6, respectively. Both the mRNA levels and protein expression of MCP-1 were assessed. The threshold cycle (Ct) values were determined and normalized to the housekeeping gene 18 SrRNA in order to adjust for equal amounts of RNA whereas β-actin was used as protein loading control.

The subject of experiment [3] is hypercholesterolemic pigs with myocardial ischemia. Kind of experiment: Hypercholesterolemic pigs, 90 min LAD balloon occlusion: early cardiac damage markers. The class given is in vivo. The settings on record: 0.3 mg/kg i.v. at 15 min of ischemia. How it is done: To this end, 14 pigs were fed for 10 days a Western-type hypercholesterolemic diet [20%-saturated fat (beef tallow), 2%-cholesterol, 1%-cholic acid]. This hyperlipidemic diet contains 24.82% proteins, 64.20%of carbohydrates, 10.98% of fats and 16,834.7 kJ.
After this 10 day diet period animals underwent a closed-chest 90 min mid-left anterior descending (LAD) coronary balloon occlusion and the same experimental design described in Example 1.

The test system is the same in experiment [4]. The experiment in a line: Neutrophil infiltration (anti-Neutrophil Elastase staining) in ischemic myocardium of hypercholesterolemic pigs. It is filed as in vivo. Conditions: single i.v. dose 15 min after onset of ischemia, vs controls. How it is done:
To this end, ischemic myocardial tissue of all hypercholesterolemic pigs included in Example 12 was obtained, embedded in OCT, and stained for neutrophils detection (anti-Neutrophil Elastase; Abcam). Staining was calculated by a single blinded observer from an average of 5-fields/animal as % of stained area. Images were captured by Nikon Eclipse 80i microscope and digitized by Retiga 1300i Fast camera.

Where [5] appears, read: 30, 60 and 90 min after MI induction, vs controls.
Where [6] appears, read: 90 min ischemic period, vs absence of treatment.
[7] abbreviates: ischemic myocardium, vs non-treated pigs.

As for `CC(C)c1c(C(=O)Nc2ccccc2)c(-c2ccccc2)c(-c2ccc(F)cc2)n1CC[C@@H](O)C[C@@H](O)CC(=O)O` [atorvastatin], in experiment [1] (setting [5]), the “IMA (Ischemic Modified Albumin) blood levels” value is “significantly reduced” and the Myoglobin blood levels entry is listed as “significantly reduced”. In addition, in experiment [1] (setting [6]), the “overall reduction of CFABP levels” value was “more than 75%”, the “overall reduction of IMA levels” value is “more than 50%” and the “overall reduction of myoglobin levels” value is on record as “more than 75%”. Further, in the experiment on RhoA (0.3 mg/kg i.v. at 15 min of ischemia, tissue at 90 min), the “total amount of RhoA protein in the ischemic myocardium” value is on record as “not affected”. Further, in the experiment with RhoA (single dose after the onset of ischemia, infarcted pigs), the “RhoA activation in the ischemic myocardium” value is “inhibits”. The “reduction of size of infarction (% of total LV wall)” value in experiment [2] was “around 50%”. Further, in the experiment on MCP-1/CCL2 (setting [7]), the “MCP-1 mRNA expression” value is listed as “significantly reduced” and the MCP-1 protein expression entry was “significantly reduced”. For the same compound, the MCP-1 expression result in the experiment with MCP-1/CCL2 (non-ischemic myocardial tissue) was “No changes”. Moreover, in experiment [3] (already at 30 min), the CFABP entry was “significant reduction”, the IMA entry is “significant reduction” and the Myoglobin entry is “significant reduction”. In experiment [3] (vs control), the “Percentage of reduction of CFABP” value is 60-75%, the “Percentage of reduction of IMA” value is on record as 60-75% and the “Percentage of reduction of Myoglobin” value was 60-75%. Moreover, the “reduction in neutrophil myocardial infiltration” value in experiment [4] is reported as 57%.
